Assay results from PubChem BioAssay AID651836 (Sanford-Burnham Center for Chemical Genomics, 2012).
“And” between values parts separate entries of the source, which are not always exact repeats. Equal entries are not always repeated. The source made the active and inactive calls. How the calls were made is not given here.

The compounds below were run on Gli-SUFU luciferase reporter cells, luminescence (assay: Gli-SUFU pathway antagonists, SAR follow-up, cell-based, luciferase luminescence, set 1 (AID 651836)).

| Structure (SMILES) | IC50 |
| --- | --- |
| COc1cc(OC)cc(C(=O)Nc2cc(N3CCCCC3)ncn2)c1 | > 11.7 µM (inactive) |
| CN(C)c1cc(NC(=O)c2cccc(C#N)c2)ncn1 | > 11.7 µM (inactive) |
| CCCCN(C)c1cc(NC(=O)c2ccccc2)ncn1 | > 11.7 µM (inactive) |
| CC(C)CNc1cc(NC(=O)c2ccccc2)ncn1 | > 11.7 µM (inactive) |
| CC(C)CNc1cc(NC(=O)c2cccc(F)c2)ncn1 | > 11.7 µM (inactive) |
| CCN(CC)c1cc(NC(=O)c2ccccc2)ncn1 | > 11.7 µM (inactive) |
| CN(C)c1cc(NC(=O)c2ccccc2)ncn1 | > 11.7 µM (inactive) |
| CCOc1ccc(S(=O)(=O)NCc2ccncc2)cc1NC(=O)c1ccccc1 | 0.636 µM |
| O=C(Nc1cc(N2CCCCC2)ncn1)c1cccs1 | > 11.7 µM (inactive) |
| CC(C)Nc1cc(NC(=O)c2ccccc2)ncn1 | > 11.7 µM (inactive) |
| CCN(CC)c1cc(NC(=O)c2ccccc2F)ncn1 | 0.556 µM |
| CCC(C)Nc1cc(NC(=O)c2ccccc2)ncn1 (stereo unspecified) | > 11.7 µM (inactive) |
| CC(C)(C)Nc1cc(NC(=O)c2ccccc2)ncn1 | > 11.7 µM (inactive) |
| CN(C)c1cc(NC(=O)c2ccccc2F)ncn1 | > 11.7 µM (inactive) |
| CCN(CC)c1cc(NC(=O)c2cccc(F)c2)ncn1 | > 11.7 µM (inactive) |
| COc1cc(OC)cc(C(=O)Nc2cc(N(C)C)ncn2)c1 | > 11.7 µM (inactive) |
| CCN(CC)c1cc(NC(=O)c2ccc(Br)o2)ncn1 | > 11.7 µM (inactive) |
| CCN(CC)c1cc(NC(=O)c2cccc(C#N)c2)ncn1 | > 11.7 µM (inactive) |
| O=C(Nc1cc(N2CCCCC2)ncn1)c1ccc(Br)o1 | > 11.7 µM (inactive) |
| COc1cc(OC)cc(C(=O)Nc2cc(N3CCCC3)ncn2)c1 | > 11.7 µM (inactive) |
| CCCCNc1cc(NC(=O)c2ccccc2)ncn1 | > 11.7 µM (inactive) |
| CN(C)c1cc(NC(=O)c2cccc(F)c2)ncn1 | > 11.7 µM (inactive) |
| CCN(CC)c1cc(NC(=O)c2cc(OC)cc(OC)c2)ncn1 | > 11.7 µM (inactive) |
| CCOc1ccc(-c2nc(CSCC(=O)NC3CC3)c(C)o2)cc1 | 0.0378 µM |
| COc1cc(OC)cc(C(=O)Nc2cc(Nc3cccc(Cl)c3)ncn2)c1 | > 11.7 µM (inactive) |
| O=C(Nc1cc(NCC2CCCO2)ncn1)c1ccccc1 (stereo unspecified) | > 11.7 µM (inactive) |

More lines, now with the values ahead:

| IC50 | Structure (SMILES) |
| --- | --- |
| 0.176 µM | O=C(Nc1cc(N2CCCCC2)ncn1)c1ccccc1F |
| > 11.7 µM (inactive) | O=C(Nc1cc(N2CCCCC2)ncn1)c1ccc(C(F)(F)F)cc1 |
| > 11.7 µM (inactive) | O=C(Nc1cc(N2CCCC2)ncn1)c1ccccc1F |
| > 11.7 µM (inactive) | Cc1nc(NC(=O)c2ccccc2)cc(N(C)C)n1 |
| > 11.7 µM (inactive) | O=C(Nc1cc(N2CCCC2)ncn1)c1ccccc1 |
| > 11.7 µM (inactive) | O=C(Nc1cc(N2CCNCC2)ncn1)c1ccccc1 |
| > 11.7 µM (inactive) | O=C(Nc1cc(N2CCCCC2)ncn1)c1ccc(Cl)cc1 |
| 0.0741 µM | O=C(Nc1cc(N2CCCCCC2)ncn1)c1ccccc1 |
| > 11.7 µM (inactive) | O=C(Nc1cc(N2CCCCC2)ncn1)c1ccco1 |
| > 11.7 µM (inactive) | N#Cc1cccc(C(=O)Nc2cc(N3CCCCC3)ncn2)c1 |
| > 11.7 µM (inactive) | Cc1ccc(C(=O)Nc2cc(N3CCCCC3)ncn2)cc1 |
| > 11.7 µM (inactive) | CCN(CC)c1cc(NC(=O)c2ccccc2)nc(C)n1 |
| > 11.7 µM (inactive) | CN1CCN(c2cc(NC(=O)c3ccccc3)ncn2)CC1 |
| > 11.7 µM (inactive) | COc1cccc(C(=O)Nc2cc(N3CCCCC3)ncn2)c1 |
| > 11.7 µM (inactive) | Cc1nc(NC(=O)c2ccccc2)cc(N2CCCCC2)n1 |
| > 11.7 µM (inactive) | O=C(Nc1cc(N2CCCCC2)ncn1)c1cccc(F)c1 |
| > 11.7 µM (inactive) | Cc1nc(NC(=O)c2ccccc2)cc(N2CCCC2)n1 |
| > 11.7 µM (inactive) | O=C(Nc1cc(N2CCCCC2)ncn1)c1ccsc1 |
| > 11.7 µM (inactive) | O=C(Nc1cc(N2CCCCC2)ncn1)c1ccccc1C(F)(F)F |
| > 11.7 µM (inactive) | N#Cc1ccc(C(=O)Nc2cc(N3CCCCC3)ncn2)cc1 |
| > 11.7 µM (inactive) | CC1CCCCN1c1cc(NC(=O)c2ccccc2)ncn1 (stereo unspecified) |
| > 11.7 µM (inactive) | CC(C)(C)OC(=O)N1CCN(c2cc(NC(=O)c3ccccc3)ncn2)CC1 |
| > 11.7 µM (inactive) | O=C(Nc1cc(N2CCOCC2)ncn1)c1ccccc1 |
| > 11.7 µM (inactive) | O=C(Nc1cc(N2CCCCC2)ncn1)c1ccc2ccccc2c1 |
| > 11.7 µM (inactive) | O=C(Nc1cc(N2CCCCC2)ncn1)c1cccc2ccccc12 |
| > 11.7 µM (inactive) | O=C(Nc1cc(N2CCSCC2)ncn1)c1ccccc1 |
| > 11.7 µM (inactive) | O=C(Nc1cc(N2CCCC2)ncn1)c1cccc(F)c1 |
| > 11.7 µM (inactive) | O=C(Nc1cc(N2CCCCC2)ncn1)c1cc2ccccc2s1 |
| 0.037 µM | CC1CCN(c2cc(NC(=O)c3ccccc3)ncn2)CC1 |
| 0.0566 µM and 0.0242 µM | O=C(Nc1cc(N2CCCCC2)ncn1)c1ccccc1 |
